Data: patent publication US20070173539A1, “Use of malonomicin and analogs in fungicidal applications” (priority 2006, published 2007)
Read-outs that look alike come from different tables or passages of the source.

Key:
Format in all cases: in vivo
[1] = system: Colletotricum lagenarium (COLLLA); assay: Cucumber Anthracnose one day protectant (1DP); conditions: cucumber (Bush Champion), sprayed to runoff, rate 200 ppm
Experimental: Compound formulation was accomplished by dissolving Compound I, II, III, IV, V, or VI in water with serial dilutions to obtain desired rates. Final treatment volumes were obtained by adding 0.1 percent aqueous Ethomeen T25 or 0.1 percent aqueous Spraymate X77+0.1 percent wt./vol. ammonium sulfate^+.
Cucumber Anthracnose (Colletotricum lagenarium; COLLLA) (1DP)
Cucumber plants (variety Bush Champion) were grown in plastic pots containing 100 percent Metro-Mix 360 (W.R Grace and Co.) until the first true leaf was 20-80 percent expanded. Each pot contained 1 seedling. These plants were then sprayed to runoff with the test compound at a rate of 200 ppm. After 24 hours, the plants were sprayed with an aqueous spore suspension of Colletotricum lagenarium (COLLLA). The plants were then transferred to a dew chamber for 24 hours, then to a growth chamber until disease developed on the untreated control plants.

[2] = system: Puccinia recondita f. sp. tritici (PUCCRT); assay: Brown Rust of Wheat one day protectant (1DP); conditions: wheat (Monon), sprayed to runoff, rate 200 ppm
Experimental: Final treatment volumes were obtained by adding 0.1 percent aqueous Ethomeen T25 or 0.1 percent aqueous Spraymate X77+0.1 percent wt./vol. ammonium sulfate^+. Brown Rust of Wheat (Puccinia recondita f. sp. tritici-PUCCRT) (1 DP) Wheat (cultivar Monon) was grown in plastic pots (6.2 cm×8.75 cm) containing 50 percent mineral soil, 50 percent Metro-Mix 360 (W.R Grace and Co.) until the seedlings were 10-20 cm tall. These plants were then sprayed to runoff with the test compound at a rate of 200 ppm. After 24 hours the test plants were inoculated by spraying with an aqueous spore suspension of Puccinia recondita f. sp. tritici (PUCCRT). The plants were then transferred to a dew chamber for 24 hours, then to the greenhouse until disease developed on the untreated control plants.

[3] = system: Phytophthora infestans (PHYTIN); conditions: 1DP, tomato (rutgers), sprayed to runoff, rate 200 ppm
[4] = system: Phytophthora infestans PHYTIN; conditions: curative 1 day, low volume 300 L/ha, tomato

NC[C@@H]1NC(=O)C(C(=O)CC(NC(=O)[C@@H](N)CO)(C(=O)O)C(=O)O)=C1O [Compound I, {[(2S)-2-amino-3-hydroxypropanoyl]amino}{2-[(5S)-5-(aminomethyl)-4-hydroxy-2-oxo-2,5-dihydro-1H-pyrrol-3-yl]-2-oxoethyl}malonic acid]
COLLLA percent control of plant disease [1]: − (− = 0-29 percent control of plant disease) | PUCCRT percent control of plant disease [2]: ++ (++ = 75-100 percent control of plant disease) | PHYTIN percent control of plant disease [3]: ++ (++ = 75-100 percent control of plant disease) | PHYTIN 1DC percent disease control ([4]; 7.8 g ai/ha): − (− = 0-29 percent control of plant disease) | PHYTIN 1DC percent disease control ([4]; 15.6 g ai/ha): + (+ = 30-74 percent control of plant disease) | PHYTIN 1DC percent disease control ([4]; 31.2 g ai/ha): + (+ = 30-74 percent control of plant disease) | PHYTIN 1DC percent disease control ([4]; 62.5 g ai/ha): − (− = 0-29 percent control of plant disease) | PHYTIN 1DC percent disease control ([4]; 125 g ai/ha): + (+ = 30-74 percent control of plant disease) | PHYTIN 1DC percent disease control ([4]; 250 g ai/ha): ++ (++ = 75-100 percent control)
